Source: US9610350B2, “Broad spectrum preservation blends” (Arch Personal Care Products, L.P., priority 2009, dated 2017)

Key:
Assay type in all cases: cell-based
[1] = test system: mixed Pseudomonas aeruginosa (ATCC 9027) and Burkholderia cepacia (ATCC 25416); assay: CTFA-type challenge test, mixed P. aeruginosa + B. cepacia inoculum; details: Make-up Remover at pH 8.1 with 0.83% Benzyl Alcohol; Challenge #2; 48 Hours
[2] = test system: Candida albicans (ATCC 10231); assay: CTFA-type challenge test, C. albicans inoculum; details: Make-up Remover at pH 8.1 with 0.83% Benzyl Alcohol
[3] = test system: mixed Klebsiella pneumoniae (ATCC 4352) and Enterobacter gergoviae (ATCC 33028); assay: CTFA-type challenge test, mixed K. pneumoniae + E. gergoviae inoculum; details: Make-up Remover at pH 8.1 with 0.83% Benzyl Alcohol; Challenge #2; 48 Hours
[4] = test system: Staphylococcus aureus (ATCC 6538); assay: CTFA-type challenge test, S. aureus inoculum; details: Make-up Remover at pH 8.1 with 0.83% Benzyl Alcohol
[5] = test system: mixed Pseudomonas aeruginosa (ATCC 9027) and Burkholderia cepacia (ATCC 25416); assay: CTFA-type challenge test, mixed P. aeruginosa + B. cepacia inoculum; details: Make-up Remover at pH 8.1 with 0.83% Benzyl Alcohol
Excerpt: (§1) CTFA Challenge Test Procedure: A challenge protocol similar to the CTFA method was followed to assess efficacy against a broad spectrum of microorganisms. The five separate inocula were: Staphylococcus aureus (ATCC 6538), mixed Pseudomonas aeruginosa (ATCC 9027) and Burkholderia cepacia (ATCC 25416), mixed Klebsiella pneumoniae (ATCC 4352) and Enterobacter gergoviae (ATCC 33028), Candida albicans (ATCC 10231), and a mixture of molds: Aspergillus niger (ATCC 16404) and 2 Penicillium sp. isolated from cosmetic products. Samples (35 grams each) were inoculated with approximately 2,000,000 bacteria per gram or 100,000 yeast cells or mold spores per gram. Individual challenges were prepared from overnight slants of bacteria and yeast cultures and from heavily sporulating mold cultures, 7 to 10 days old. All samples were plated quantitatively for viable organisms after 24 hours and weekly for up to 4 weeks. Samples inoculated with mold spores were also plated after 48 hours. Samples were re-challenged after four weeks (or sooner where appropriate) and the same sampling regime followed.
(§2) Recommended “Pass” Criteria: CTFA recommends at least a 99.9% reduction of vegetative bacteria and at least a 90% reduction of yeasts and molds within 7 days following each challenge with no increase in count thereafter.
(§3) The preservative concentrates were added to these formulations to give a final concentration of 1%. […]

[6] = test system: mixture of molds: Aspergillus niger (ATCC 16404) and 2 Penicillium sp.; assay: CTFA-type challenge test, mixed mold inoculum; details: for Colony Forming Units per Gram (CFU/g), Mixed Molds: Make-up Remover at pH 8.1 with 0.83% Benzyl Alcohol
Excerpt: as §1, §2, §3
To determine if the unexpected activity of ECT 4 at high pH (8.1) can be attributed solely to the activity of benzyl alcohol the high pH make-up remover was preserved with 1% ECT4 and with 0.83% benzyl alcohol (equivalent amount found in 1% ECT4).

[7] = test system: mixed Klebsiella pneumoniae (ATCC 4352) and Enterobacter gergoviae (ATCC 33028); assay: CTFA-type challenge test, mixed K. pneumoniae + E. gergoviae inoculum; details: Make-up Remover at pH 8.1 with 0.83% Benzyl Alcohol
Excerpt: as §1, §2, §3

[8] = High pH Make-up Remover (pH 8.1), 0.83% benzyl alcohol

## OCc1ccccc1 [benzyl alcohol]
[1]
  Colony Forming Units per Gram (CFU/g), P. aeruginosa + B. cepacia: <10 CFU/g
[2]; Challenge #1, 7 Days
  Colony Forming Units per Gram (CFU/g), C. albicans: 1.6 × 10^2 CFU/g
[2]; Challenge #1, 14 Days
  Colony Forming Units per Gram (CFU/g), C. albicans: <10 CFU/g
[2]; Challenge #1, 21 Days
  Colony Forming Units per Gram (CFU/g), C. albicans: <10 CFU/g
[2]; Challenge #1, 24 Hours
  Colony Forming Units per Gram (CFU/g), C. albicans: 3.1 × 10^4 CFU/g
[2]; Challenge #1, 28 Days
  Colony Forming Units per Gram (CFU/g), C. albicans: <10 CFU/g
[2]; Challenge #2, 7 Days
  Colony Forming Units per Gram (CFU/g), C. albicans: <10 CFU/g
[2]; Challenge #2, 14 Days
  Colony Forming Units per Gram (CFU/g), C. albicans: <10 CFU/g
[2]; Challenge #2, 21 Days
  Colony Forming Units per Gram (CFU/g), C. albicans: <10 CFU/g
[2]; Challenge #2, 28 Days
  Colony Forming Units per Gram (CFU/g), C. albicans: <10 CFU/g
[2]; Challenge #2, 48 Hours
  Colony Forming Units per Gram (CFU/g), C. albicans: <1.0 × 10^2 CFU/g
[3]
  Colony Forming Units per Gram (CFU/g), K. pneumoniae + E. gergoviae: <10 CFU/g
[4]; Challenge #1, 7 Days
  Colony Forming Units per Gram (CFU/g), S. aureus: <10 CFU/g
[4]; Challenge #1, 14 Days
  Colony Forming Units per Gram (CFU/g), S. aureus: <10 CFU/g
[4]; Challenge #1, 21 Days
  Colony Forming Units per Gram (CFU/g), S. aureus: <10 CFU/g
[4]; Challenge #1, 24 Hours
  Colony Forming Units per Gram (CFU/g), S. aureus: <10 CFU/g
[4]; Challenge #1, 28 Days
  Colony Forming Units per Gram (CFU/g), S. aureus: <10 CFU/g
[4]; Challenge #2, 7 Days
  Colony Forming Units per Gram (CFU/g), S. aureus: <10 CFU/g
[4]; Challenge #2, 14 Days
  Colony Forming Units per Gram (CFU/g), S. aureus: <10 CFU/g
[4]; Challenge #2, 21 Days
  Colony Forming Units per Gram (CFU/g), S. aureus: <10 CFU/g
[4]; Challenge #2, 28 Days
  Colony Forming Units per Gram (CFU/g), S. aureus: <10 CFU/g
[4]; Challenge #2, 48 Hours
  Colony Forming Units per Gram (CFU/g), S. aureus: <10 CFU/g
[5]; Challenge #1, 7 Days
  Colony Forming Units per Gram (CFU/g), P. aeruginosa + B. cepacia: <10 CFU/g
[5]; Challenge #1, 14 Days
  Colony Forming Units per Gram (CFU/g), P. aeruginosa + B. cepacia: <10 CFU/g
[5]; Challenge #1, 21 Days
  Colony Forming Units per Gram (CFU/g), P. aeruginosa + B. cepacia: <10 CFU/g
[5]; Challenge #1, 24 Hours
  Colony Forming Units per Gram (CFU/g), P. aeruginosa + B. cepacia: <10 CFU/g
[5]; Challenge #1, 28 Days
  Colony Forming Units per Gram (CFU/g), P. aeruginosa + B. cepacia: <10 CFU/g
[5]; Challenge #2, 7 Days
  Colony Forming Units per Gram (CFU/g), P. aeruginosa + B. cepacia: <10 CFU/g
[5]; Challenge #2, 14 Days
  Colony Forming Units per Gram (CFU/g), P. aeruginosa + B. cepacia: <10 CFU/g
[5]; Challenge #2, 21 Days
  Colony Forming Units per Gram (CFU/g), P. aeruginosa + B. cepacia: <10 CFU/g
[5]; Challenge #2, 28 Days
  Colony Forming Units per Gram (CFU/g), P. aeruginosa + B. cepacia: <10 CFU/g
[6]; [8]
  CTFA recommendations for a minimum of 90% mold reduction in 7 days: did not meet CTFA recommendations
  Efficacy against the mixed mold challenge: not sufficiently efficacious
[6]; Challenge #1, 7 Days
  Colony Forming Units per Gram (CFU/g), Mixed Molds: 3.0 × 10^4 CFU/g
[6]; Challenge #1, 14 Days
  Colony Forming Units per Gram (CFU/g), Mixed Molds: 8.0 × 10^4 CFU/g
[6]; Challenge #1, 21 Days
  Colony Forming Units per Gram (CFU/g), Mixed Molds: 1.5 × 10^4 CFU/g
[6]; Challenge #1, 24 Hours
  Colony Forming Units per Gram (CFU/g), Mixed Molds: 2.1 × 10^5 CFU/g
[6]; Challenge #1, 28 Days
  Colony Forming Units per Gram (CFU/g), Mixed Molds: 5.1 × 10^3 CFU/g
[6]; Challenge #1, 48 Hours
  Colony Forming Units per Gram (CFU/g), Mixed Molds: 1.2 × 10^5 CFU/g
[6]; Challenge #2, 7 Days
  Colony Forming Units per Gram (CFU/g), Mixed Molds: 3.4 × 10^3 CFU/g
[6]; Challenge #2, 14 Days
  Colony Forming Units per Gram (CFU/g), Mixed Molds: 3.6 × 10^3 CFU/g
[6]; Challenge #2, 21 Days
  Colony Forming Units per Gram (CFU/g), Mixed Molds: 9.0 × 10^3 CFU/g
[6]; Challenge #2, 28 Days
  Colony Forming Units per Gram (CFU/g), Mixed Molds: 4.0 × 10^2 CFU/g
[6]; Challenge #2, 48 Hours
  Colony Forming Units per Gram (CFU/g), Mixed Molds: 3.8 × 10^3 CFU/g
[7]; Challenge #1, 7 Days
  Colony Forming Units per Gram (CFU/g), K. pneumoniae + E. gergoviae: <10 CFU/g
[7]; Challenge #1, 14 Days
  Colony Forming Units per Gram (CFU/g), K. pneumoniae + E. gergoviae: <10 CFU/g
[7]; Challenge #1, 21 Days
  Colony Forming Units per Gram (CFU/g), K. pneumoniae + E. gergoviae: <10 CFU/g
[7]; Challenge #1, 24 Hours
  Colony Forming Units per Gram (CFU/g), K. pneumoniae + E. gergoviae: <10 CFU/g
[7]; Challenge #1, 28 Days
  Colony Forming Units per Gram (CFU/g), K. pneumoniae + E. gergoviae: <10 CFU/g
[7]; Challenge #2, 7 Days
  Colony Forming Units per Gram (CFU/g), K. pneumoniae + E. gergoviae: <10 CFU/g
[7]; Challenge #2, 14 Days
  Colony Forming Units per Gram (CFU/g), K. pneumoniae + E. gergoviae: <10 CFU/g
[7]; Challenge #2, 21 Days
  Colony Forming Units per Gram (CFU/g), K. pneumoniae + E. gergoviae: <10 CFU/g
[7]; Challenge #2, 28 Days
  Colony Forming Units per Gram (CFU/g), K. pneumoniae + E. gergoviae: <10 CFU/g
